Data published in US20150292045A1, “ALTERNATIVE USES FOR HBV ASSEMBLY EFFECTORS” (INDIANA UNIVERSITY RESEARCH AND TECHNOLOGY CORPORATION, priority 2012, published 2015).
Like-named read-outs stand apart in the source and are kept apart here.

Experiments:
HBV RNA = assay: Transient transfection of Huh-7 cells, cytoplasmic RNA quantified by RT-PCR; assay type: cell-based, hepatitis B virus; conditions: for EC50: Hepatitis B virus
Procedure: FIG. 7 Several compounds were used to treat a transient transfection of Huh-7 cells (Huh-7 is a well differentiated hepatocyte derived cellular carcinoma cell line). Cytoplasmic RNA was harvested and quantified by RT-per. Treatment/dynamic range/ED50: DMSO/1.6/NA; AT130/25/0.5 μM; HAP13/20/5 μM; HAP12/36/0.5 μM.
(§1) CpAMs were used to treat a transient transfection of huh7 cells. Cytoplasmic RNA was harvested and quantified by RT-per. The transfection system is described by Lentz and Loeb (Lentz and Loeb (2010) J Virol Methods 169, 52-60.) Fresh medium with drug was added to cultured cells daily for four days at concentrations from 0.001 to 10 micromolar. The two points at 0.00001 are both controls where there was no drug and no DMSO. The controls and the DMSO-treated cells had similar amounts of RNA. […] (See FIG. 7)

HBV [1] = assay: Suppression of secreted HBV DNA synthesis; assay type: cell-based; conditions: Hepatitis B virus
Procedure: Antiviral activity was measured using an inducible HBV expression system, AD38 cells. (Ladner, S. K. et al., Antimicrob Agents Chemother 41, 1715-20 (1997)). Initial experiments tested the activity of 10 μM HAP (percentage viral assembly at 24 hour). For active molecules, effective concentrations were determined for suppression of HBV production by 50% and by 90%; this value is reported in μM. Compound toxicity was tested in the parent cell line, HepG2. This is reported as the concentration required to suppress cell growth by 50%, CC50 (in μM) and as the ratio of CC50/EC50, also known as the therapeutic index. As a control and for comparison, the results for the nucleoside analog 3TC (lamivudine) also described.
as §1

HBV [2] = assay: HepG2 cells transfected with linear full-length HBV DNA: capsid-associated HBV-DNA, cccDNA and pgRNA by real-time PCR; assay type: cell-based, hepatitis B virus genotype A
Source text: a) In HepG2 cells transfected with monomeric linear full length HBV pgRNA and HBV replication are dependent on cccDNA formation, chromatinization and transcription. b) Cytoplasmic HBV core particles were isolated from untreated and HAP12-treated cells at the indicated time points after transfection. Results are expressed as number of HBV DNA copies per transfected cells. c) cccDNA accumulation in untreated and HAP12-treated HepG2 cells transfected with wild type HBV genomes. qPCR analysis was performed using selective cccDNA primers to amplify cccDNA and beta-globin primers to normalize the DNA samples. Results are expressed as number of cccDNA copies per transfected cells. d) mRNAs were prepared from untreated and […] HepG2 cells transfected with wild type HBV genomes and harvested at the indicated times post-transfection. Specific primers were utilized to quantify the HBV pregenomic RNA and GAPDH amplification was used to normalize for equal loading of each RNA sample. All histograms show mean values from two independent experiments; bars indicate standard deviations (SD)
(§2) The activity of the hetero-aryl-dihydropyrimidine HAP12 compound on capsid-associated HBV-DNA (TaqMan real-time PCR), cccDNA (TaqMan real-time PCR) (Werle-Lapostolle, Gastroenterology 2004) and pgRNA levels (quantitative realtime PCR) (Belloni, PNAS 2009) were assessed in three in vitro HBV replication models:
a) HepG2 cells transfected with a linear full-length genotype A HBV DNA (Gunther, J Virol 1995; Pollicino, Gastroenterology 2006);

HBV [3] = assay: HepG2 H1.3 HBV stable clone: capsid-associated HBV-DNA, cccDNA and pgRNA by real-time PCR; assay type: cell-based, hepatitis B virus genotype D
Source text: HAP12 treatment is started at day 10 of “differentiation” when HBV replication is high and the cccDNA pool is expanded. pgRNA is transcribed from both cccDNA and integrated HBV. b) Cytoplasmic HBV core particles, nuclear cccDNA (c) and total mRNAs (d) were isolated from untreated and HAP12-treated cells at the indicated time points. HBV-DNA, cccDNA and pgRNA results are expressed as in FIG. 2. Histograms show mean values from two independent experiments; bars indicate standard deviations (SD).
By treating the HepG2 H1.3 cells with HAP12 before the establishment of the cccDNA pool it was shown that cccDNA formation and accumulation […] by HAP12. Under these conditions the effect on HBV replication is maximal. a) HAP12 treatment is started at day 0 of “differentiation” when HBV replication and cccDNA levels are very low. b) Cytoplasmic HBV core particles, nuclear cccDNA (c) and total mRNAs (d) were isolated from untreated and HAP12-treated cells at the indicated time points. HBV-DNA, cccDNA and pgRNA results are expressed as in FIG. 2. Histograms show mean values from two independent experiments; bars indicate standard deviations (SD).
as §2
b) the HepG2 H1.3 genotype D HBV stable clone that accumulates cccDNA when cultured in “conditioned” medium at high confluence (Protzer, Gastroenterology 2007; Lucifora, J Hepatol 2011);

HBV [4] = assay: AD38 stable cell line (tetracycline removal): cytoplasmic core particle HBV DNA and pgRNA; assay type: cell-based, hepatitis B virus genotype D; conditions: AD38 cells, treatment started at day 0 or day 6
Source text: FIG. 5 HAP12 targets cccDNA transcription in AD38 cells. […] The cccDNA pool is built up from the recycling of mature core particles to the nucleus after HBV replication is started from the pgRNA initially transcribed from the “tet-regulated” HBV integrated DNA (b). HAP12 treatment is started at day 0 (left panels) or day 6 (right panels). c) Cytoplasmic HBV core particles, and total mRNAs (d) were isolated from untreated and HAP12-treated cells at the indicated time points. HBV DNA, cccDNA and pgRNA results are expressed as in FIG. 2. All histograms show mean values from two independent experiments; bars indicate standard deviations (SD).
as §2
c) the AD38 cells are a stable HepG2-derived HBV genotype D clone that, upon tetracycline removal, expresses pgRNA,
assembles subviral particles in the cytoplasm, accumulates cccDNA in the nucleus and secretes HBV virions in the cell supernatant (Ladner, J Virol 1997).

[5] = test system: HBc binding to the cccDNA; assay: cccDNA ChIP assay in HepG2 H1.3 cells; assay type: cell-based, hepatitis B virus; conditions: 10 days treatment
Source text: FIG. 6 HAP12 interferes with HBc binding to the cccDNA. It is herein described that using a cccDNA ChIP assay (a), that HBc is recruited onto the cccDNA in HBV replicating HepG2 cells (b) and in the HepG2 H1.3 stable cell line. […] It is believe that this finding is in agreement with the observed inhibition of cccDNA transcription and pgRNA production in HAP12 treated cells. HAP12 treatment is started at day 10 of HepG2 H1.3 cells “differentiation” (see legend to FIG. 3). Cross-linked chromatin was prepared from untreated and HAP12-treated cells at TO (before treatment, 10 gg “differentiation”) and at T10 (10 days of exposure to HAP12, 20 gg from beginning of […], #H1905-15). ChIPped chromatin was analyzed by qPCR with HBV cccDNA selective primers. Results are expressed as % of input. Histograms show mean values from two independent experiments; bars indicate standard deviations (SD).
Recruitment of HBc and cccDNA bound histones modifications were assessed using the cccDNA ChIP assay (Pollicino, 2006)

[6] = Huh-7, 96 h, huh7 transient transfection, drug daily for four days, read-out: EC50 for RNA suppression
[7] = Huh-7 transient transfection, read-out: ED50 (cytoplasmic RNA)
[8] = HepG2 H1.3, treatment started at day 0, before establishment of the cccDNA pool
[9] = HepG2 H1.3, treatment started at day 10 of differentiation

| Compound | EC50 (HBV RNA; [6]) [nM] | EC50 (HBV RNA; [7]) [nM] | dynamic range (cytoplasmic RNA) (HBV RNA; Huh-7 transient transfection) | EC50 (HBV [1]) [nM] | decrease in cccDNA levels (HBV [2]) [%] | suppression of HBV replication (HBV [2]; 72 and 96 hrs) | peak reduction of pgRNA transcription (HBV [2]; at 96 hours) [%] | cccDNA formation/accumulation (HBV [3]; [8]) | effect on HBV replication (HBV [3]; [8]) | effect on HBV replication (HBV [3]; [9]) | effect on pgRNA transcription (HBV [3]; [9]) | effect on HBV replication (HBV [4]) | effect on pgRNA transcription (HBV [4]) | cccDNA HBc occupancy [5] | cccDNA-bound H3 histone acetylation [5] |
| --- | --- | --- | --- | --- | --- | --- | --- | --- | --- | --- | --- | --- | --- | --- | --- |
| COc1ccccc1/C(Br)=C(\NC(=O)c1ccc([N+](=O)[O-])cc1)C(=O)N1CCCCC1 [AT130, (E)-N-(1-Bromo-1-(2-methoxyphenyl)-3-oxo-3-(piperidin-1-yl)prop-1-en-2-yl)-4-nitrobenzamide] | 500 | 500 | 25 | 2400 |  |  |  |  |  |  |  |  |  |  |  |
| COC(=O)C1=C(CN2CCOCC2)NC(c2ccccn2)=NC1c1ccc(F)cc1Cl (centres unmarked) [HAP12] | 500 | 500 | 36 | 12 | ~30 | complete suppression | > 50 | does not prevent | maximal | inhibitory effect | inhibitory effect | inhibitory effect | inhibitory effect | strongly inhibited | sharp decrease |
| COC(=O)C1=C(CN2CCNCC2)NC(c2ccccn2)=NC1c1ccc(F)cc1Cl (centres unmarked) [HAP13] | 5000 | 5000 | 20 | 6100 |  |  |  |  |  |  |  |  |  |  |  |
